Here are results for three compounds from patent publication US12280047B2, “Treatment of aneurysms” (Georgia State Research Foundation, Inc., priority 2017, dated 2025).

For test [1], the system named is ApoE−/− mice. The experiment in a line: OMBA, NBA and 1MT treating AngII-induced abdominal aortic aneurysm (Example 15). The class given is in vivo. Conditions: for Incidence of AAA: ApoE−/− mice, AngII 1,000 ng/kg/min four weeks, then drug in drinking water 6 weeks, mice with AAA/group size. As for the experimental part: To test the effect of other Kynurenine pathway inhibitors on treating AngII-induced abdominal aortic aneurysm, male ApoE^−/− mice at age 8 weeks were infused with AngII (1,000 ng/kg/min) or saline (0.9% sodium chloride) by Alzet osmotic pumps for four weeks. Four weeks later, Ang-II treated mice were divided into […] groups of 18 and administered o-methoxybenzo ylalanine (OMB), (m-nitrobenzoyl)alanine (NBA), 1-methyltryptophan (1MT) or vehicle control (water) by drinking water for 6 weeks.
To quantify AAA incidence and size, the maximum width of abdominal aorta was measured with Image Pro Plus software (Media Cybernetics). Aneurysm incidence was quantified based on a definition of aneurysm as an external width of the suprarenal aorta that was increased by 50% or greater compared with aortas from saline-infused mice. The average diameter of the normal suprarenal aorta in control mice is 0.8 mm. Therefore, a threshold of 1.22 mm as evidence of aneurysm formation was set. […] Incidence of AAA among the various groups of mice is outlined in FIG. 31A and Table 5 below.

In a further test the test system is HASMCs. The experiment in a line: MMP2 expression and activity in HASMCs incubated with metabolites of Trp degradation. The class given is cell-based, human. From the text:
J Immunol. […] Neuropharmacology. […] Proc Natl Acad Sci USA.

Test [2] concerns MMP2. Put plainly: MMP2 expression and activity in aortas of 3-HAA-injected mice. The class given is in vivo. Conditions: 3-HAA 200 mg/kg/d i.p., 6 weeks; ApoE−/− and ApoE−/−/IDO−/− mice; vs vehicle-treated mice. As for the experimental part: ApoE^−/− and ApoE^−/−/IDO^−/− mice at age 8 weeks on a chow diet were intraperitoneally injected with 3-HAA (200 mg/kg. d) or vehicle for 6 weeks. 3-HAA was dissolved in […] and further diluted in Captisol (Captisol Technology).
Circ Res. (2014) 114:480-92.
The evaluation of MMP activities in cells and aortas was performed as described previously in: Satoh K, et al., Cyclophilin A enhances vascular oxidative stress and the development of angiotensin II-induced aortic aneurysms. Nat Med. (2009) 15:649-56; Becerra A, et al., Increased activity of indoleamine 2,3-dioxygenase in serum from acutely infected dengue patients linked to gamma interferon antiviral function. J Gen Virol. (2009) 90:810-7; Holmes E W. Determination of serum kynurenine and hepatic tryptophan dioxygenase activity by high-performance liquid chromatography. Anal Biochem. (1988) 172:518-25; Forrest C M, et al., Kynurenine pathway metabolism in patients with osteoporosis after 2 years of drug treatment. Clin Exp Pharmacol Physiol. […]
To ascertain the effect of 3-HAA in MMP2 expression in vivo, ApoE^−/− and ApoE^−/−/IDO^−/− mice were intra-peritoneally treated with vehicle or 3-HAA (200 mg/kg/d) for 6 weeks. Corresponding increases in 3-HAA were detected in the plasma (FIG. 6F) and aortas (FIGS. 6D and 6E) of 3-HAA-injected ApoE^−/− and ApoE^−/−/IDO^−/− mice. […]

The subject of test [3] is MMP2. The experiment in a line: MMP2 in isolated mouse aortas incubated with 3-HAA ex vivo. Conditions: 400 μM 3-HAA, 48 hours, aortas from ApoE−/− and ApoE−/−/IDO−/− mice.
The test system of test [4] is ApoE−/− mice. The experiment in a line: Serum kynurenine pathway metabolites in AngII mice treated with OMBA, NBA, 1MT (Example 15). The class given is in vivo. As for the experimental part:
The culture medium was centrifuged to pellet the cells to avoid contamination from the cells, and the supernatant was filtered ([…]) before use. Sample preparation for plasma was operated as described previously (Becerra A, et al., Increased activity of indoleamine 2,3-dioxygenase in serum from acutely infected dengue patients linked to gamma interferon antiviral function. J Gen Virol. (2009) 90:810-7; Holmes E W. Determination of serum kynurenine and hepatic tryptophan dioxygenase activity by high-performance liquid chromatography. Anal Biochem. (1988) 172:518-25). 200 μL of plasma was mixed by vortex in a small polyethylene conical tube with 1/10 volume of ice cold 2.4 mol/L perchloric acid. The cloudy suspension was chilled on ice for 15 min and then centrifuged at 10,000 g for 2 min. The clear protein-free supernatant was analyzed directly.
Circ Res. (2014) 114:480-92. Kyn content was estimated along with standards ranging from 0.5-20 μM L-kynurenine (Sigma, K8625), and Trp level was assessed along standards ranging from 1-25 μM DL-Tryptophan (Sigma, 162698), using a GraceVydac C18 column (250×4.6 mm, 5.0 The mobile phase was 20 mM sodium acetate at pH=4.5. The flow rate was 1 ml/min. The column effluent was monitored at 360 nm (Kyn) and 280 nm (Trp) by a UV detector.
3-HAA was measured by HPLC as described previously in Forrest C M, et al., Kynurenine pathway metabolism in patients with osteoporosis after 2 years of drug treatment. Clin Exp Pharmacol Physiol. (2006) 33:1078-87. 3-HAA content was estimated along with standards ranging from 1-200 nM 3-Hydroxyanthranilic acid (Santa Cruz, sc-216460), using a GraceVydac C18 column (250×4.6 mm, 5.0 The mobile phase consisted of 25 mM sodium acetate (pH=5.5) and methanol (90:10 v/v) was pumped at a flow rate of 1 ml/min. Fluorescent detection at excitation 320 nm and emission 420 was used. […]

Where [5] appears, read: concentration- and time-dependent manner.

Take `Cn1cc(C[C@H](N)C(=O)O)c2ccccc21` [1MT, 1-methyltryptophan]: in the test on ApoE−/− mice [1], the “Incidence of AAA” value is given as 9/18.
As to `Nc1c(O)cccc1C(=O)O` [3-HAA, 3-Hydroxyanthranilic acid], the “MMP2 expression and activity” value with HASMCs (48 hours, Kyn 100 μM, 3-HK 100 μM, KA 75 μM, AA 100 μM, 3-HAA 200 μM, XA 200 μM, QA 1 mM, immunoblot and zymography) is reported as “dramatic increase”. Besides, in the test on HASMCs (setting [5]), the “expression and activity of MMP2” value is on record as “induced”; the “phosphorylation of Elk1 at Ser383” value is recorded as “induced”. Besides, the “MMP2 expression and activity in aortas” value in the test on MMP2 [2] is on record as “remarkably increased”. Also, the “MMP2 expression and activity in isolated aortas” value in the test with MMP2 [3] is given as “significantly upregulated”.
With `COc1ccccc1C(=O)NC(C)C(=O)O` (stereo not drawn) [OMBA, o-Methoxybenzoylalanine], in the test with ApoE−/− mice [1] (AngII-administered mice), the “aortic weight to body weight ratio” value is listed as “lower” and the “maximal abdominal aortic diameter” value is on record as “lower”. The “Incidence of AAA” value in the test on ApoE−/− mice [1] is listed as 5/18. Moreover, in the test with ApoE−/− mice [4] (AngII-administered mice, compared to control mice), the “Serum levels of tryptophan” value is “decreased”. Also, in the test with ApoE−/− mice [4] (compared to AngII alone), the “Levels of anthranilic acid (serum)” value is “elevated” and the “Levels of kynurenic acid (serum)” value is on record as “elevated”.
